# According to patent US20250018088A1, “COMPOSITIONS AND METHODS FOR REPAIRING DAMAGE TO SKELETAL MUSCLE” (MAYO FOUNDATION FOR MEDICAL EDUCATION AND RESEARCH, priority 2021, published 2025):
# Columns and labels:
# NF-κB p65 = assay: Western blot of NF-κB p65 expression in HSMM cells; type: cell-based, human; conditions: increasing resveratrol 50 μM to 500 μM with 2.5×10^11 exosomes/mL PEP, 72 hours
# Experimental: Western blotting for expression of exosome markers was conducted in two different manners: traditional and Li-Cor. In the traditional method, equal amounts of protein were loaded into each lane and transferred to a PVDF membrane. The membranes were blocked in 5% nonfat dried milk diluted in TBST and incubated with primary antibodies against CD63, CD9, and Flotillin (Table 1). HIRP-conjugated secondary antibodies were used to incubate the membranes and were developed with enhanced chemiluminescence (AERSHAM, GE Healthcare, Chicago, TL). Loading was standardized to a GAPDH loading control. In the Li-Cor digital fluorescence method (Li-Cor Biosciences, Inc., Lincoln, NE), equal amounts of protein were loaded into each lane and transferred to a nitrocellulose membrane. The membranes were blocked in Li-Cor TBS Blocking Buffer and incubated with primary antibodies against NF-κB p65, and PD-L1. Secondary antibodies at 680 nm and 800 nm were used to fluorescently image the membranes using an imaging system (Odyssey CLx, Li-Cor Biosciences, Inc., Lincoln, NE). Digital fluorescent intensity was determined by IMAGE STUDIO software (Li-Cor Biosciences, Inc., Lincoln, NE) and loading was standardized by total protein stain (Li-Cor Biosciences, Inc., Lincoln, NE) for whole lane protein digital fluorescence and analyzed by EMPIRIA STUDIO software (Li-Cor Biosciences, Inc., Lincoln, NE). […]
# [1] = system: Human Skeletal Muscle Myoblasts (HSMM); assay: Resveratrol inhibition of PEP-mediated HSMM proliferation; type: cell-based
# Experimental: The mechanism of PEP-induced HSMM proliferation was interrogated using resveratrol (InvivoGen, San Diego, CA), an NF-κB inhibitor, in culture grown with 2.5×10^11 PEP exosomes/mL. The concentration of PEP exosomes was chosen both because of its optimal impact on the growth of cultured HSMMs and to match the empirically determined timed release PEP concentration from TISSEEL (Baxter International, Inc., Deerfield, IL) reconstituted with 1×10^12 PEP exosomes/mL. HSMM were plated on a 96-well plate at 10,000 cells/well overnight. Resveratrol was incubated at concentrations ranging from 50 μM to 500 μM for an hour before adding 2.5×10^11 PEP exosomes/mL to each well. Data is generated from live cell proliferation analysis (INCUCYTE, Essen BioScience, Inc., Ann Arbor, MI) by acquiring phase images (10× lens; five images/well in 96-well plate with three wells/condition). Western blotting for expression of NF-κB p65 at 72 hours post inhibition was quantified and normalized (IMAGE STUDIO software, LI-COR Biosciences, Inc., Lincoln, NE) using a total protein stain.
smiles,measurement,setting,value
Oc1ccc(C=Cc2cc(O)cc(O)c2)cc1 [resveratrol],NF-κB expression in PEP-treated HSMM following resveratrol treatment,NF-κB p65,dose dependent decrease
same,inhibition at 250 µM,"[1]; Homo sapiens, Myoblast, 250 μM resveratrol, 2.5×10^11 exosomes/mL PEP, p<0.0001 vs PEP",~50%
same,inhibition at 500 µM,"[1]; Homo sapiens, Myoblast, 500 μM resveratrol, 2.5×10^11 exosomes/mL PEP, p<0.0001 vs PEP",~100%
same,inhibition of myoblast growth,"[1]; low doses of resveratrol (e.g., 50 μM), with PEP",not significantly inhibited
